Data set [1] in a line: Cytotoxicity assay (CellTiter-Blue). The class given is cell-based. To be noted: human; HEK293 cells, 48hr of incubation.
In data set [2] the test system is S. aureus biofilm formation. The experiment in a line: Crystal violet biofilm inhibition assay. The class given is cell-based, Staphylococcus aureus. The settings on record: fphH or fphE transposon mutant. On the procedure: Overnight cultures of S. aureus (wild-type, transposon mutants and complemented) strains (Table S3) grown in TSB, were subcultured on fresh TSB and grown to OD600 of 0.5. Biofilms were cultured in 96 well plates by transferring 1 μL of the culture to 200 μL of TSB plus 1% glucose with or without the inhibitors and incubated for 16 hours at 37°C without agitation. The inhibitor concentrations ranged from 1, 5, 10, 50 and 100 μM final concentration. Equal volume of DMSO was added as control. The wells were washed to remove the planktonic cells and the plates air-dried before staining with 200μL of 0.1% w/v crystal violet for 10 minutes at room temperature. The wells were washed to remove excess dye and blotted to dry. Each well was filled with 200μL of DMSO for 10 minutes at room temperature to dissolve the dye. The absorbance was measured at 590 nm using Spark multimode microplate reader (TECAN). The data represents n = 3 independent experiments and are expressed as a percentage of the uninhibited wild-type bacteria. All the data are normalized such that 100% represent untreated WT S. aureus. P values were determined using ordinary one-way ANOVA multiple comparisons GraphPad Prism 10.0 software. *P < 0.05, **P < 0.01, ***P < 0.001 and ****P < 0.0001.

Data set [3] addresses T1, recombinant FphE (rFphE) (Staphylococcus aureus, UniProt Q2FDS6).
T1 construct: otherwise full-length FphE (Uniprot ID Q2FDS6) and FphH (A0A0H2XJL0) proteins; His6 (3C-cleavable, pETNKI-his-3C-LIC vector) (N); made in house; E. coli is inferred from the pET28a-type vector, IPTG induction and LB/kanamycin
T1 sequence (Q2FDS6 1-276): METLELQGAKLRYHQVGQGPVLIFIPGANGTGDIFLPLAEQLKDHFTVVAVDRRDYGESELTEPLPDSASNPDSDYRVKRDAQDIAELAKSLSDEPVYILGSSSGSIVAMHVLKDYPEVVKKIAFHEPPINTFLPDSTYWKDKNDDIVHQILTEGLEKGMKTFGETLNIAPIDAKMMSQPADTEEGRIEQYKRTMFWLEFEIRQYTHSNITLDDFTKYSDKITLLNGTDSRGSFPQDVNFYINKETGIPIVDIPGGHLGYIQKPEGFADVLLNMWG
Put plainly: biochemical. The settings on record: IC50 rFphE, value in nM. Here is the method:
Fluorogenic substrate assays were performed as previously described[9],[11],[12]. […] Turnover rates in the linear phase of the reaction (10–20 min) were calculated using GraphPad prism 10.0 software as RFU/min. Rates were normalized by subtracting background hydrolysis rates measured for each substrate in reaction buffer in the absence of protein.
For the screening, 8 μL of enzyme solution was pipetted into the assay plates containing 50 nL compound and allowed to incubate for one hour at room temperature. […] For four-point dose response plates, 2.5, 10, 25, 50 nL droplets were transferred to get […], 10, 25, 50 μM compound concentrations in the 384 well plates again using an Echo acoustic liquid handler as above. […] Calculations were done with GraphPad Prism 10.0 software. […] IC50 values were derived from the fitted curve.

Data set [4] has as its system S. aureus wild type and fph transposon mutants. Put plainly: Bacterial growth inhibition assay, S. aureus. To be noted: 1–100 μM. The class given is cell-based, Staphylococcus aureus. Here is the method: Bacteria were streaked from glycerol stocks onto agar plates and grown overnight at 37°C. A single colony was inoculated in either Tryptic Soy Broth (TSB; Sigma-Aldrich, St. Louis, MO; used for most species) or Bacto Brain Heart Infusion (BHI; Becton, Dickinson, and Company, Franklin Lakes, NJ; used for L. monocytogenes and S. pyogenes) and grown at 37°C shaking until mid-exponential phase (OD600 = 0.5), then diluted 1:10 in cation-adjusted Mueller Hinton Broth (MHB2, Millipore Sigma, Bedford, MA; used for most species) or BHI (for L. monocytogenes and S. pyogenes). 15 μl of this dilution was added to 135 μl of MHB2 or BHI in a flat-bottom clear 96-well plate for a starting inoculum of ~ 5 × 10^5 CFU/ml.
For bacterial growth inhibition assay, wild-type S. aureus and transposon mutants (fphB::Tn, fphE::Tn and fphH::Tn) were grown with compounds at final concentrations ranging from 1–100 μM and compared to growth in media with an equivalent percentage of DMSO. Each condition was plated as technical duplicates. The plate was incubated at 37°C with shaking every 15 minutes followed by measurement of OD600 for 14 hr. All growth curves were repeated at least twice and analyzed in GraphPad Prism 10.0 software. For bacterial resistance analysis, overnight culture of S. aureus Newman was diluted to an OD600 of 0.01 in MHB. This was followed by pretreatment with 20 μM N34 or equivalent DMSO volume as control. The pretreatment was allowed to proceed for 3 hr before initiating treatment with different concentrations of the test antibiotics (Table S5). The cultures were incubated overnight at 37°C, 5% CO2 before their optical density was read. The EC50 of the antibiotics against the bacteria in the presence or absence of N34 were determined by fitting the normalized data into a four-parameter logistic model in GraphPad Prism 10.0 software.

Where only a bound is given, the exact number is not on record here.

On to `OB(O)c1csc2ccccc12` [Z27, Benzo[b]thiophen-3-ylboronic acid], for which, in data set [1], the CC50 at 48 h is more than 200000 nM. In data set [2], the “effect on biofilm formation in transposon mutants (in words)” value is “further reduced by the inhibitor Z27 only at the highest concentrations used (50 and 100 μM)”. Also, in data set [3], the IC50 turned out to be 50 nM. In addition, the “effect on S. aureus growth (in words)” value in data set [4] is listed as “reduced growth for only the fphE mutant”.

One may read the CC50 as the concentration giving 50% cytotoxicity. The low end stands for harm at low concentration, the high end for better tolerance by the cells. For orientation: IC50 means the concentration that inhibits the measured activity by half.

For the origin of these results see publication PMC11661381, “Covalent-fragment screening identifies selective inhibitors of multiple Staphylococcus aureus serine hydrolases important for growth and biofilm formation” (Research Square, 2024).
